Measurements taken from patent US12502338B2, “Dental glass ionomer cement” (GC Corporation, priority 2020, dated 2025).

Test: Water solubility / water insolubility by visual observation
Assay type: physicochemical
Details: 0.4 g sample in 4 g distilled water, 20° C., 30 minutes
Procedure: As used herein and in the claims, a water-soluble compound means a compound having a solubility in water of 10 g/100 g H2O or more at 20° C.
4 g of distilled water and 0.4 g of a sample were sufficiently stirred at 20° C., allowed to stand for 30 minutes, and then visually observed. When white turbidity and biphasic separation were not observed, it was judged to be water soluble. When white turbidity or biphasic separation was observed, it was judged to be water insoluble.

| Compound | water solubility / water insolubility |
| --- | --- |
| C=C(C)C(=O)OCCO [HEMA, hydroxyethyl methacrylate] | WATER-SOLUBLE |
| C=C(C)C(=O)OCCOC(=O)NCCC(C)CC(C)(C)CNC(=O)OCCOC(=O)C(=C)C (centres unmarked) [UDMA, di-2-methacryloxyethyl-2,2,4-triethylhexamethylene dicarbamate] | WATER-SOLUBLE |

Continued, values first:

| water solubility / water insolubility | Compound |
| --- | --- |
| WATER-SOLUBLE | C=CC(=O)NCCO [HEAA, hydroxyethyl acrylamide] |
| WATER-SOLUBLE | C=C(C)C(=O)OCCOCCOCCOC(=O)C(=C)C [TEGDMA, triethylene glycol dimethacrylate] |
| WATER-SOLUBLE | isocyanuric acid EO-modified trimethacrylate [UA-7100] |
